Results: ChEMBL document CHEMBL1137840, “A novel cyclic enkephalin analogue with potent opioid antagonist activity” (Bioorg Med Chem Lett, 2004)

How the values were obtained:
[1] = target: Kappa-type opioid receptor (Cavia porcellus, UniProt P41144); assay: Inhibitory concentration against Kappa opioid receptor of guinea pig ileum; type: tissue-based
[2] = Binding affinity towards Kappa opioid receptor
[3] = Binding affinity towards Mu opioid receptor
[4] = target: Mu-type opioid receptor (Cavia porcellus) (UniProt P97266); assay: Binding potency towards Mu opioid receptor of guinea pig ileum; type: tissue-based
Sequence of Mu-type opioid receptor (Cavia porcellus) (P97266 whole entry): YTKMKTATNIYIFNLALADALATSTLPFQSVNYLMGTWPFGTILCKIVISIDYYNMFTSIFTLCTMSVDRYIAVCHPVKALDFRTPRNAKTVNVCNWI

[5] = target: Kappa-type opioid receptor (Cavia porcellus) (UniProt P41144); assay: Binding potency towards Kappa opioid receptor of guinea pig ileum; type: tissue-based
Sequence of Kappa-type opioid receptor (Cavia porcellus) (P41144 whole entry): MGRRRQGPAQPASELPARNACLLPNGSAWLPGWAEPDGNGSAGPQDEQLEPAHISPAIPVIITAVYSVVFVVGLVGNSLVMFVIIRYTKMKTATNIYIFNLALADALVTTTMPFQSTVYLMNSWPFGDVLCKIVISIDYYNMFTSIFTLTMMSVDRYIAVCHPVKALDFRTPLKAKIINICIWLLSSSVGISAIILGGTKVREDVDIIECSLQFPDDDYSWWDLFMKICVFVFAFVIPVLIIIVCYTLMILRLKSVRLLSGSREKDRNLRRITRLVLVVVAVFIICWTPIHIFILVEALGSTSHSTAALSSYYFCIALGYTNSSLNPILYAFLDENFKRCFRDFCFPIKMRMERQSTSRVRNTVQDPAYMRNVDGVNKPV

[6] = target: Delta-type opioid receptor (Mus musculus) (UniProt P32300); assay: Binding potency towards Delta opioid receptor of mouse vas deferens; type: tissue-based
Sequence of Delta-type opioid receptor (Mus musculus) (P32300 whole entry): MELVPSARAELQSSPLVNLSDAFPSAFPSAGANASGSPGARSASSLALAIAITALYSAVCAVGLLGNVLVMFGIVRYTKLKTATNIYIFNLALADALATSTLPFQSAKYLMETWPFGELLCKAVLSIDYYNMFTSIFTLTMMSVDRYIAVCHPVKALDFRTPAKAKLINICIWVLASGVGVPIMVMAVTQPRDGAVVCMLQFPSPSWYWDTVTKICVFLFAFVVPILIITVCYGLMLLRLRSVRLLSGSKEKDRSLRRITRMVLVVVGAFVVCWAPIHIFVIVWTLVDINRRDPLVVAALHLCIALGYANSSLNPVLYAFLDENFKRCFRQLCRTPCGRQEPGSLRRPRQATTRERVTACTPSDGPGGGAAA

[7] = Binding affinity towards Opioid receptor mu 1

Sequence of Kappa-type opioid receptor (P41144 whole entry): as the sequence (P41144 whole entry) above

| SMILES | IC50 [1] [nM] | Ki [2] [nM] | Ki [3] [nM] | Ke [4] [nM] | Ke [5] [nM] | Ke [6] [nM] | Ki [7] [nM] |
| --- | --- | --- | --- | --- | --- | --- | --- |
| Cc1cc(O)cc(C)c1C[C@H](N)C(=O)N[C@@H]1CSSC[C@H](C(N)=O)NC(=O)[C@H](Cc2ccc([N+](=O)[O-])cc2)NC(=O)CNC1=O | 0.54 | 3.77 | 0.24 |  |  |  |  |
| Cc1cc(O)cc(C)c1[C@@H](C)CC(=O)N[C@H]1CSSC[C@H](C(N)=O)NC(=O)[C@H](Cc2ccc([N+](=O)[O-])cc2)NC(=O)CNC1=O |  | 49.5 |  | 1.4 | 5.81 | 55 | 2.1 |
| Cc1cc(O)cc(C)c1[C@H](C)CC(=O)N[C@H]1CSSC[C@H](C(N)=O)NC(=O)[C@H](Cc2ccc([N+](=O)[O-])cc2)NC(=O)CNC1=O |  | 6970 | 94.4 | 845 | 1630 | 3280 |  |
| Cc1cc(O)cc(C)c1CCC(=O)N[C@H]1CSSC[C@H](C(N)=O)NC(=O)[C@H](Cc2ccc([N+](=O)[O-])cc2)NC(=O)CNC1=O |  | 299 | 4.79 | 3.68 | 22.6 | 63.3 |  |
